In US9376442B2, “Methylpyrrolopyrimidinecarboxamides” (Takeda GmbH, priority 2009, dated 2016):

Legend:
PDE4B1 = target: T1, PDE4B1 (Homo sapiens, UniProt Q07343); assay: Inhibition of type 4 phosphodiesterase (PDE4) activity, modified SPA test with recombinant PDE4B1 expressed in SF21 insect cells; format: biochemical; conditions: recombinant PDE4B1, 0.5 μM cAMP, read-out: PDE4B1 inhibitory values [measured as −log IC50 (mol/l)] (converted)
T1 construct: made in house; host or cells: SF21 insect cells (baculovirus; pCRBac vector), 1000 x g supernatant of homogenate
T1 sequence (Q07343 whole entry): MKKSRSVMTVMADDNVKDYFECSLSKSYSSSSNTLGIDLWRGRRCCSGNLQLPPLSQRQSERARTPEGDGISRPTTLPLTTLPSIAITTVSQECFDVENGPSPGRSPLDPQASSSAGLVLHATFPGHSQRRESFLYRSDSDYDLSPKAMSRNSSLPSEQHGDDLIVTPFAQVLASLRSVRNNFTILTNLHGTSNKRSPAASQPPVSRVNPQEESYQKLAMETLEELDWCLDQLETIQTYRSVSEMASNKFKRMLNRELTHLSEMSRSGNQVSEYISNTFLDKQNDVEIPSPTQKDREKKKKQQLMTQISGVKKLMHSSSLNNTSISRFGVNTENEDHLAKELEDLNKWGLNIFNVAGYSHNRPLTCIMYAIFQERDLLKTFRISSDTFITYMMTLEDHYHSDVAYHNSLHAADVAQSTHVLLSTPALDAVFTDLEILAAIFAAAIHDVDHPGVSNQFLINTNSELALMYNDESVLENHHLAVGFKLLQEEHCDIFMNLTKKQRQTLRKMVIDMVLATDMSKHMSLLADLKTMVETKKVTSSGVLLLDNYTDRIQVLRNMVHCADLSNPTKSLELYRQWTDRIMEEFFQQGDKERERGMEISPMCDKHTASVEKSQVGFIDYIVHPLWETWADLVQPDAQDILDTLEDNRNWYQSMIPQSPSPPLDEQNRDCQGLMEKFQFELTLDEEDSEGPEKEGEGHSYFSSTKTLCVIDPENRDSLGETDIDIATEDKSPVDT
Method: Method for Measuring Inhibition of the Type 4 Phosphodiesterase (PDE4) Activity:
The PDE4B1 (GB no. L20966) was a gift of Prof. M. Conti (Stanford University, USA). It was amplified from the original plasmid (pCMV5) via PCR with primers Rb18 (5′-[…]-3′) and Rb10 (5′-[…]-3′) and cloned into the pCRBac vector (Invitrogen, Groningen, NL).
The recombinant baculovirus was prepared by means of homologous recombination in SF9 insect cells. The expression plasmids were cotransfected with Baculo-Gold DNA (Pharmingen, Hamburg) using a standard protocol (Pharmingen, Hamburg). Wt virus-free recombinant virus supernatants were selected using plaque assay methods. After that, high-titre virus supernatants were prepared by amplifying 3 times. PDE4B1 was expressed in SF21 cells by infecting 2×10^6 cells/ml with an MOI (multiplicity of infection) between 1 and 10 in the serum-free medium Insect Express Sf9-S2 (PAA, Pasching, Austria). The cells were cultured at 28° C. for 48-72 hours, after which they were pelleted for 5-10 min at 1000×g and 4° C.
The SF21 insect cells were resuspended, at a concentration of approx. 10^7 cells/ml, in ice-cold (4° C.) homogenization buffer (20 mM Tris, pH 8.2, containing the following additions: 140 mM NaCl, 3.8 mM KCl, 1 mM EGTA, 1 mM MgCl2, 10 mM (3-mercaptoethanol, 2 mM benzamidine, 0.4 mM Pefablock, 10 μM leupeptin, 10 μM pepstatin A, 5 μM trypsin inhibitor) and disrupted by ultrasonication. The homogenate was then centrifuged for 10 min at 1000×g and the supernatant was stored at −80° C. until subsequent use (see below). The protein content was determined by the Bradford method (BioRad, Munich) using BSA as the standard.
PDE4B1 activity was inhibited by the compounds according to the present subject matter in a modified SPA (scintillation proximity assay) test, supplied by Amersham Biosciences (see procedural instructions “phosphodiesterase [3H]cAMP SPA enzyme assay, code TRKQ 7090”), carried out in 96-well microtitre plates (MTP's). The test volume is 100 μl and contains 20 mM Tris buffer (pH 7.4), 0.1 mg/ml of BSA, 5 mM Mg^2+, 0.5 μM cAMP (including about 50,000 cpm of [3H]cAMP), 1 μl of the respective substance dilution in DMSO and sufficient recombinant PDE (1000×g supernatant, see above) to ensure that 10-20% of the cAMP is converted under the said experimental conditions. […] After a preincubation of 5 min at 37° C., the reaction is started by adding the substrate (cAMP) and the assays are incubated for a further 15 min; after that, they are stopped by adding SPA beads (50 μl). In accordance with the manufacturer's instructions, the SPA beads had previously been resuspended in water, but were then diluted 1:3 (v/v) in water; the diluted solution also contains 3 mM IBMX to ensure a complete PDE activity stop. After the beads have been sedimented (>30 min), the MTP's are analyzed in commercially available luminescence detection devices. The corresponding IC50 values of the compounds for the inhibition of PDE4B1 activity are determined from the concentration-effect curves by means of non-linear regression.

PDE5A1 = target: T2, PDE5A1 (Homo sapiens, UniProt O76074); assay: Inhibition of type 5 phosphodiesterase (PDE5) activity, modified SPA test with human platelet lysate; format: biochemical; conditions: 0.5 μM cGMP, read-out: PDE5A1 inhibitory values [measured as −log IC50 (mol/l)] (converted)
T2 construct: from tissue; host or cells: human platelets from fresh donor blood (10,000 x g supernatant of sonicated lysate)
Procedure, shortened: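 Scintillation proximity assay with [3H]cGMP tracer at 0.5 μM total cGMP, stopped after 15 min with beads containing IBMX. PDE3 and PDE2 activities suppressed with motapizone (1 μM) and a PDE2 inhibitor (10 nM). Human platelet supernatant served as the enzyme, with compound preincubated 5 min at 37° C; IC50 values from concentration-effect curves.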

IC50 (PDE4B1)	IC50 (PDE5A1)	SMILES
100 to 1000 nM	< 1 nM	CCc1ccc(OCC2CC2)c(-c2ncnc3c(C(=O)N[C@H]4CC[C@@H](NC(C)=O)CC4)c(C)[nH]c23)c1 [Example E151, N-[cis-4-(Acetylamino)cyclohexyl]-4-[2-(cyclopropylmethoxy)-5-ethylphenyl]-6-methyl-5H-pyrrolo[3,2-d]pyrimidine-7-carboxamide]
< 100 nM	< 1 nM	CCC(=O)N1CCC(NC(=O)c2c(C)[nH]c3c(-c4cc(C(F)(F)F)ccc4OCC4CC4)ncnc23)CC1 [Example E91, 4-[2-(Cyclopropylmethoxy)-5-(trifluoromethyl)phenyl]-6-methyl-N-(1-propanoylpiperidin-4-yl)-5H-pyrrolo[3,2-d]pyrimidine-7-carboxamide]
< 100 nM	< 1 nM	CCC(=O)N[C@H]1CC[C@H](NC(=O)c2c(C)[nH]c3c(-c4cc(C(F)F)ccc4OCC4CC4)ncnc23)C1 [Example P90, 4-[2-(Cyclopropylmethoxy)-5-(difluoromethyl)phenyl]-6-methyl-N-[(1S,3S)-3-(propanoylamino)cyclopentyl]-5H-pyrrolo[3,2-d]pyrimidine-7-carboxamide]
< 100 nM	< 1 nM	COCC(=O)N[C@H]1CC[C@H](NC(=O)c2c(C)[nH]c3c(-c4cc(C(F)(F)F)ccc4OCC4CC4)ncnc23)CC1 [Example E95, 4-[2-(Cyclopropylmethoxy)-5-(trifluoromethyl)phenyl]-N-{trans-4-[(methoxyacetyl)amino]cyclohexyl}-6-methyl-5H-pyrrolo[3,2-d]pyrimidine-7-carboxamide]
100 to 1000 nM	< 1 nM	CC(=O)N1CCC(NC(=O)c2c(C)[nH]c3c(-c4cc(F)ccc4OCC4CC4)ncnc23)CC1 [Example E37, 4-(2-Cyclopropylmethoxy-5-fluoro-phenyl)-6-methyl-5H-pyrrolo[3,2-d]pyrimidine-7-carboxylic acid (1-acetyl-piperidin-4-yl)-amide]
100 to 1000 nM	< 1 nM	COCC(=O)N1CCC(NC(=O)c2c(C)[nH]c3c(-c4cc(C)ccc4OCC4CC4)nc(C)nc23)CC1 [Example E171, 4-[2-(Cyclopropylmethoxy)-5-methylphenyl]-N-[1-(methoxyacetyl)piperidin-4-yl]-2,6-dimethyl-5H-pyrrolo[3,2-d]pyrimidine-7-carboxamide]
< 100 nM	< 1 nM	CCc1ccc(OCC2CC2)c(-c2ncnc3c(C(=O)N[C@H]4CC[C@H](NC(C)=O)CC4)c(C)[nH]c23)c1 [Example E148, N-[trans-4-(Acetylamino)cyclohexyl]-4-[2-(cyclopropylmethoxy)-5-ethylphenyl]-6-methyl-5H-pyrrolo[3,2-d]pyrimidine-7-carboxamide]
< 100 nM	< 1 nM	COCC(=O)N[C@H]1CC[C@H](NC(=O)c2c(C)[nH]c3c(-c4cc(C(F)F)ccc4OCC4CC4)ncnc23)CC1 [Example P8, 4-[2-(Cyclopropylmethoxy)-5-(difluoromethyl)phenyl]-N-{trans-4-[(methoxyacetyl)amino]cyclohexyl}-6-methyl-5H-pyrrolo[3,2-d]pyrimidine-7-carboxamide]
< 100 nM	1 to 10 nM	COCC(=O)N1CCC(NC(=O)c2c(C)[nH]c3c(-c4cc(C(F)F)ccc4OCC4CC4)ncnc23)CC1 [Example P3, 4-[2-(Cyclopropylmethoxy)-5-(difluoromethyl)phenyl]-N-[1-(methoxyacetyl)piperidin-4-yl]-6-methyl-5H-pyrrolo[3,2-d]pyrimidine-7-carboxamide]
< 100 nM	< 1 nM	CCC(=O)N[C@H]1CC[C@H](NC(=O)c2c(C)[nH]c3c(-c4cc(C(F)F)ccc4OCC4CC4)ncnc23)CC1 [Example P7, 4-[2-(Cyclopropylmethoxy)-5-(difluoromethyl)phenyl]-6-methyl-N-[trans-4-(propanoylamino)cyclohexyl]-5^H-pyrrolo[3,2-d]pyrimidine-7-carboxamide]

Further lines, the compound ahead of its results:

SMILES	IC50 (PDE4B1)	IC50 (PDE5A1)
COCC(=O)N[C@H]1C[C@@H](F)[C@H](NC(=O)c2c(C)[nH]c3c(-c4cc(C(F)F)ccc4OCC4CC4)ncnc23)C1 (relative stereo) [Example P101, 4-[2-(Cyclopropylmethoxy)-5-(difluoromethyl)phenyl]-N-{(1R*,2R*,4R*)-2-fluoro-4-[(methoxyacetyl)amino]cyclopentyl}-6-methyl-5H-pyrrolo[3,2-d]pyrimidine-7-carboxamide]	< 100 nM	–
CC(=O)N[C@H]1CC[C@H](NC(=O)c2c(C)[nH]c3c(-c4cc(C(F)F)ccc4OCC4CC4)ncnc23)C1 [Example P89, N-[(1S,3S)-3-(Acetylamino)cyclopentyl]-4-[2-(cyclopropylmethoxy)-5-(difluoromethyl)phenyl]-6-methyl-5H-pyrrolo[3,2-d]pyrimidine-7-carboxamide]	< 100 nM	< 1 nM
Cc1ccc(OCC2CC2)c(-c2ncnc3c(C(=O)N[C@H]4CC[C@@H](NC(=O)[C@H](C)O)CC4)c(C)[nH]c23)c1 [Example F56, 4-[2-(Cyclopropylmethoxy)-5-methylphenyl]-N-(cis-4-{[(2S)-2-hydroxypropanoyl]amino}cyclohexyl)-6-methyl-5H-pyrrolo[3,2-d]pyrimidine-7-carboxamide]	< 100 nM	< 1 nM
CCc1ccc(OCC2CC2)c(-c2ncnc3c(C(=O)N[C@H]4CC[C@H](NC(=O)CO)CC4)c(C)[nH]c23)c1 [Example F93, 4-[2-(Cyclopropylmethoxy)-5-ethylphenyl]-N-{trans-4-[(hydroxyacetyl)amino]cyclohexyl}-6-methyl-5H-pyrrolo[3,2-d]pyrimidine-7-carboxamide]	< 100 nM	< 1 nM
Cc1ccc(OCC2CC2)c(-c2ncnc3c(C(=O)N[C@H]4CCC[C@@H]4O)c(C)[nH]c23)c1 [Example E176, 4-[2-(Cyclopropylmethoxy)-5-methylphenyl]-N-[(1S,2S)-2-hydroxycyclopentyl]-6-methyl-5H-pyrrolo[3,2-d]pyrimidine-7-carboxamide]	< 100 nM	< 1 nM
Cc1ccc(OCC2CC2)c(-c2ncnc3c(C(=O)N[C@@H]4CCC[C@H]4O)c(C)[nH]c23)c1 [Example E178, 4-[2-(Cyclopropylmethoxy)-5-methylphenyl]-N-[(1R,2R)-2-hydroxycyclopentyl]-6-methyl-5H-pyrrolo[3,2-d]pyrimidine-7-carboxamide]	100 to 1000 nM	< 1 nM
CCC(=O)N[C@H]1C[C@@H](F)[C@H](NC(=O)c2c(C)[nH]c3c(-c4cc(C(F)F)ccc4OCC4CC4)ncnc23)C1 (relative stereo) [Example P100, 4-[2-(Cyclopropylmethoxy)-5-(difluoromethyl)phenyl]-N-[(1R*,2R*,4R*)-2-fluoro-4-(propanoylamino)cyclopentyl]-6-methyl-5H-pyrrolo[3,2-d]pyrimidine-7-carboxamide]	< 100 nM	–
CC(=O)N[C@H]1C[C@@H](F)[C@H](NC(=O)c2c(C)[nH]c3c(-c4cc(C(F)F)ccc4OCC4CC4)ncnc23)C1 (relative stereo) [Example P99, N-[(1R*,2R*,4R*)-4-(Acetylamino)-2-fluorocyclopentyl]-4-[2-(cyclopropylmethoxy)-5-(difluoromethyl)phenyl]-6-methyl-5H-pyrrolo[3,2-d]pyrimidine-7-carboxamide]	< 100 nM	–
